Laboratory results published in patent US20090105202A1 (priority 2005, published 2009).
Read-outs that look alike come from different tables or passages of the source.

Columns and labels:
[1] = tested on: HCT116 cells; format: cell-based; design: unit not given here
[2] = tested on: HCT116 cells; conditions: read-out: IC50 (the drug concentration producing 50% inhibition of colony formation), drugs 72 hours, colonies counted after 8 days
Experimental: To test the effect of androsterone derivatives of this example, HCT116cells (colorectal carcinoma cells) were plated in 60 mm Petri dishes containing 2.7 ml of medium (modified McCoy's 5a medium containing 10% fetal bovine serum and 100 units/ml penicillin and 100 µg/ml streptomycin). The cells were incubated in a CO2 incubator at 37° C. for 5 hours for attachment to the bottom of Petri dishes. Drugs were made up fresh in medium at ten times the final concentration, and then 0.3 ml of tins stock solution was added to the 2.7 ml of medium containing 5% bovine calf serum (BCS) in the dish. The cells were then incubated with drugs for 72 hours at 37° C. At the end of incubation the drug-containing media were decanted, the dishes were rinsed with 4 ml of Hank's Balance Salt Solution (HBSS). […] The cell colonies stained with methylene blue (0.5% in ethanol) were counted using colony counter after incubation for 8 days for HCT116 cells.

Row | SMILES | In vitro antitumor activity against HCT116 cells ([1]; 10 μM) | IC50 [2] | In vitro antitumor activity against HCT116 cells ([1]; 1 μM) | In vitro antitumor activity against HCT116 cells ([1]; 100 nM)
1 | O=c1[nH]cc(F)c(=O)[nH]1 [5-FU, reference compound] | 17.00 |  |  | 
2 | CC[C@@]1(OC(=O)COc2ccc(C(=O)O[C@@H]3CC[C@@]4(C)[C@@H](CC[C@@H]5[C@@H]4CC[C@]4(C)C(=O)CC[C@@H]54)C3)cc2)C(=O)OCc2c1cc1n(c2=O)Cc2cc3ccccc3nc2-1 [compound 010216, Camptothecin-20S-O-(4-carboxyphenexyacetate) linked with androsterone] |  | 2.5 nM |  | 
3 | CC[C@@]1(OC(=O)COc2ccc(C(=O)O[C@H]3CC[C@@]4(C)[C@@H](CC[C@@H]5[C@@H]4CC[C@]4(C)C(=O)CC[C@@H]54)C3)cc2)C(=O)OCc2c1cc1n(c2=O)Cc2cc3ccccc3nc2-1 [compound 0103021, Camptothecin-20S-O-(4-carboxyphenoxyacetate) linked with epiandrosterone] |  | 3.5 nM |  | 
4 | CC(ON=C1c2cc([N+](=O)[O-])cc([N+](=O)[O-])c2-c2c1ccc([N+](=O)[O-])c2[N+](=O)[O-])C(=O)O[C@H]1CC[C@@]2(C)[C@@H](CC[C@@H]3[C@@H]2CC[C@]2(C)C(=O)CC[C@@H]32)C1 (stereo partly drawn) [compound 991022, (3β,5α)-3-Hydroxyandrostan-17-one (+)-2-(2,4,5,6-tetranitro-9-flourenylidene-aminooxy)proprionate] | 0 |  | 100 | 
5 | C[C@]12CC[C@H](OC(=O)c3ccc([N+](=O)[O-])o3)C[C@@H]1CC[C@@H]1[C@@H]2CC[C@]2(C)C(=O)CC[C@@H]12 [compound 991027, (3β,5α)-3-Hydroxyandrostan-17-one 5-nitro-2-furoate] | 0 |  | 0 | 4.00
6 | C[C@]12CC[C@H](OC(=O)CCC(=O)OCc3ccc4c(c3)C(=O)c3ccccc3C4=O)C[C@@H]1CC[C@@H]1[C@@H]2CC[C@]2(C)C(=O)CC[C@@H]12 [compound 991120, 1-((3β,5α)-3-Hydroxyandrostan-17-one)-4-(2-(hydroxymethyl)anthraquinone)-succinate] | 0 |  | 100 | 
